Measurements: publication PMC5025758 (Nature Communications, 2016)

Legend:
NQO2 = NQO2 (Homo sapiens, UniProt P16083); test: chemoproteomic competition binding in mixed HEK293/K562/placenta extract, LC-MS/MS; assay type: biochemical
Pks10 = Pks10 (Mycobacterium tuberculosis, UniProt Q7VEV2); assay type: biochemical
Pks11 = assay type: biochemical, Mycobacterium bovis BCG
Adenosine A2a = target: T1, Adenosine A2a (Homo sapiens, UniProt P29274); test: cell-based; parameters: off-target selectivity panel, receptor agonist or channel opener mode, pXC50; conditions: agonist mode; read-out: pXC50 (agonist) (converted)
T1 construct: gene ADORA2A
Description: (§1) From the outset, GSK3011724A, an indazole sulfonamide (Fig. 1a), represented an attractive compound for early stage drug discovery based on its anti-mycobacterial potency, small size and moderate lipophilicity (Table 1). Further profiling in vitro using standard assays, such as the hERG ion channel and cytochrome P450 isoforms supported this view (Table 1). […] A description of this optimization effort along with a thorough discussion of the drug development potential and liabilities of this series will be the subject of a future publication.

Adrenergic α2C = target: T2, Adrenergic α2C (Homo sapiens, UniProt P18825); test: cell-based; parameters: off-target selectivity panel, receptor agonist or channel opener mode, pXC50; conditions: agonist mode; read-out: pXC50 (agonist) (converted)
T2 construct: gene ADRA2C
Description: as §1

Adrenergic β2 = target: T3, Adrenergic β2 (Homo sapiens, UniProt P07550); test: cell-based; parameters: off-target selectivity panel, receptor agonist or channel opener mode, pXC50; conditions: agonist mode; read-out: pXC50 (agonist) (converted)
T3 construct: gene ADRB2
Description: as §1

AhR = AhR (Homo sapiens, UniProt P35869); test: cell-based; parameters: off-target selectivity panel, receptor agonist or channel opener mode, pXC50; conditions: agonist mode; read-out: pXC50 (agonist) (converted)
Description: as §1

Cannabinoid CB2 = target: T4, Cannabinoid CB2 (Homo sapiens, UniProt P34972); test: cell-based; parameters: off-target selectivity panel, receptor agonist or channel opener mode, pXC50; conditions: agonist mode; read-out: pXC50 (agonist) (converted)
T4 construct: gene CNR2
Description: as §1

Dopamine D2 = target: T5, Dopamine D2 (Homo sapiens, UniProt P14416); test: cell-based; parameters: off-target selectivity panel, receptor agonist or channel opener mode, pXC50; conditions: agonist mode; read-out: pXC50 (agonist) (converted)
T5 construct: gene DRD2
Description: as §1

Muscarine M1 [1] = target: T6, Muscarine M1 (Homo sapiens, UniProt P11229); test: cell-based; parameters: off-target selectivity panel, receptor agonist or channel opener mode, pXC50; conditions: agonist mode; read-out: pXC50 (agonist) (converted)
T6 construct: gene CHRM1
Description: as §1

Muscarine M2 = target: T7, Muscarine M2 (Homo sapiens, UniProt P08172); test: cell-based; parameters: off-target selectivity panel, receptor agonist or channel opener mode, pXC50; conditions: agonist mode; read-out: pXC50 (agonist) (converted)
T7 construct: gene CHRM2
Description: as §1

Opioid κ = target: T8, Opioid κ (Homo sapiens, UniProt P41145); test: cell-based; parameters: off-target selectivity panel, receptor agonist or channel opener mode, pXC50; conditions: agonist mode; read-out: pXC50 (agonist) (converted)
T8 construct: gene OPRK1
Description: as §1

Opioid μ = target: T9, Opioid μ (Homo sapiens, UniProt P35372); test: cell-based; parameters: off-target selectivity panel, receptor agonist or channel opener mode, pXC50; conditions: agonist mode; read-out: pXC50 (agonist) (converted)
T9 construct: gene OPRM1
Description: as §1

PXR = target: T10, PXR (Homo sapiens, UniProt O75469); test: cell-based; parameters: off-target selectivity panel, receptor agonist or channel opener mode, pXC50; conditions: agonist mode; read-out: pXC50 (agonist) (converted)
T10 construct: gene NR1I2
Description: as §1

Serotonin 5HT1B = target: T11, Serotonin 5HT1B (Homo sapiens, UniProt P28222); test: cell-based; parameters: off-target selectivity panel, receptor agonist or channel opener mode, pXC50; conditions: agonist mode; read-out: pXC50 (agonist) (converted)
T11 construct: gene HTR1B
Description: as §1

Serotonin 5HT2A = target: T12, Serotonin 5HT2A (Homo sapiens, UniProt P28223); test: cell-based; parameters: off-target selectivity panel, receptor agonist or channel opener mode, pXC50; conditions: agonist mode; read-out: pXC50 (agonist) (converted)
T12 construct: gene HTR2A
Description: as §1

Serotonin 5HT2C = target: T13, Serotonin 5HT2C (Homo sapiens, UniProt P28335); test: cell-based; parameters: off-target selectivity panel, receptor agonist or channel opener mode, pXC50; conditions: agonist mode; read-out: pXC50 (agonist) (converted)
T13 construct: gene HTR2C
Description: as §1

Serotonin 5HT3 = target: T14, Serotonin 5HT3 (Homo sapiens, UniProt P46098); test: cell-based; parameters: off-target selectivity panel, receptor agonist or channel opener mode, pXC50; conditions: opener mode; read-out: pXC50 (opener) (converted)
T14 construct: gene HTR3A
Description: as §1

α1 nicotinic AChR = target: T15, α1 nicotinic AChR (Homo sapiens, UniProt P02708); test: cell-based; parameters: off-target selectivity panel, receptor agonist or channel opener mode, pXC50; conditions: opener mode; read-out: pXC50 (opener) (converted)
T15 construct: gene CHRNA1
Description: as §1

Muscarine M1 [2] = target: T6, Muscarine M1; test: cell-based; parameters: off-target selectivity panel, receptor antagonist, channel blocker or transporter inhibition mode, pXC50; conditions: antagonist mode; read-out: pXC50 (antagonist) (converted)
Description: as §1

NMDA Channel (NR2B) = target: T16, NMDA Channel (NR2B) (Homo sapiens, UniProt Q13224); test: cell-based; parameters: off-target selectivity panel, receptor antagonist, channel blocker or transporter inhibition mode, pXC50; conditions: read-out: pXC50 (blocker / transporter inhibition) (converted)
T16 construct: gene GRIN2B
Description: as §1

Acetylcholinesterase = target: T17, Acetylcholinesterase (Homo sapiens, UniProt P22303); test: biochemical; parameters: off-target selectivity panel, enzyme and kinase inhibition, pXC50; conditions: read-out: pXC50 (enzyme inhibition) (converted)
T17 construct: gene ACHE
Description: as §1

COX-2 = target: T18, COX-2 (Homo sapiens, UniProt P35354); test: biochemical; parameters: off-target selectivity panel, enzyme and kinase inhibition, pXC50; conditions: read-out: pXC50 (enzyme inhibition) (converted)
T18 construct: gene PTGS2
Description: as §1

LCK = LCK (Homo sapiens, UniProt P06239); test: biochemical; parameters: off-target selectivity panel, enzyme and kinase inhibition, pXC50; conditions: read-out: pXC50 (enzyme inhibition) (converted)
Description: as §1

PDE3A = PDE3A (Homo sapiens, UniProt Q14432); test: biochemical; parameters: off-target selectivity panel, enzyme and kinase inhibition, pXC50; conditions: read-out: pXC50 (enzyme inhibition) (converted)
Description: as §1

PI3Kγ = target: T19, PI3Kγ (Homo sapiens, UniProt P48736); test: biochemical; parameters: off-target selectivity panel, enzyme and kinase inhibition, pXC50; conditions: read-out: pXC50 (enzyme inhibition) (converted)
T19 construct: gene PIK3CG
Description: as §1

T6 sequence (P11229 whole entry): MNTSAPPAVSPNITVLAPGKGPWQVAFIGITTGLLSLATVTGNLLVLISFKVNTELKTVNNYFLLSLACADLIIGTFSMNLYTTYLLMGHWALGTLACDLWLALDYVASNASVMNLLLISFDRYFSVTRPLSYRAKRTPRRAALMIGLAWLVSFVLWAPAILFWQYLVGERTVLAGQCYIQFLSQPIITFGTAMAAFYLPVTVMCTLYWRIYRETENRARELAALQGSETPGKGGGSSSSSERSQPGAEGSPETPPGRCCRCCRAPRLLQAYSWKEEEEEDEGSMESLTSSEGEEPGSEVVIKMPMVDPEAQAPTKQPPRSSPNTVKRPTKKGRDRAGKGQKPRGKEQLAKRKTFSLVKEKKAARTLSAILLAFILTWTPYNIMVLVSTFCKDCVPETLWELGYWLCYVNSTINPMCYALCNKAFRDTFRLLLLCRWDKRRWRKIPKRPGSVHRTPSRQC
LCK, sequence (P06239 whole entry): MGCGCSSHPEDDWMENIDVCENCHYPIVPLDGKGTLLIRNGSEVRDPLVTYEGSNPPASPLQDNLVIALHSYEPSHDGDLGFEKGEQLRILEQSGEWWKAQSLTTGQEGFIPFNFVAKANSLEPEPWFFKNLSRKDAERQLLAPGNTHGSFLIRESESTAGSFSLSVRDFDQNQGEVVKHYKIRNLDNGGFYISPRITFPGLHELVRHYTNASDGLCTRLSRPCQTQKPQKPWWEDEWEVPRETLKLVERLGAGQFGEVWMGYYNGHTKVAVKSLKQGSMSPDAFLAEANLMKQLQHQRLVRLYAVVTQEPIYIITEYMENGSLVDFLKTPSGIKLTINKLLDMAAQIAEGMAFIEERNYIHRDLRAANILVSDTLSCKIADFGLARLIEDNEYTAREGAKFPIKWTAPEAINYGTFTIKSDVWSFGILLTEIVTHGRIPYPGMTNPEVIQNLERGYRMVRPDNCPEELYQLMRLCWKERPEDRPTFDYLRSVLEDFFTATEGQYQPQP
T9 sequence (P35372 whole entry): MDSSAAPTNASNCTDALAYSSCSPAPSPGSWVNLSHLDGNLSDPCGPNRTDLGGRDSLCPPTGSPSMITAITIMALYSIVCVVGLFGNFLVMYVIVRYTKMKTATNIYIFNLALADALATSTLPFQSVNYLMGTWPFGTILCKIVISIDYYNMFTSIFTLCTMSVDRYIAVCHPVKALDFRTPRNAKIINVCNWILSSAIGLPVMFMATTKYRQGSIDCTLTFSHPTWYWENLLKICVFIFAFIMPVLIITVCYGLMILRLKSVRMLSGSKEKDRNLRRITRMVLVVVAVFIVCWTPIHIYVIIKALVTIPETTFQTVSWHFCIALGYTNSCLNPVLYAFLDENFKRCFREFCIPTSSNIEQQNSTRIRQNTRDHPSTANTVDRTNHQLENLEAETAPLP
T17 sequence (P22303 whole entry): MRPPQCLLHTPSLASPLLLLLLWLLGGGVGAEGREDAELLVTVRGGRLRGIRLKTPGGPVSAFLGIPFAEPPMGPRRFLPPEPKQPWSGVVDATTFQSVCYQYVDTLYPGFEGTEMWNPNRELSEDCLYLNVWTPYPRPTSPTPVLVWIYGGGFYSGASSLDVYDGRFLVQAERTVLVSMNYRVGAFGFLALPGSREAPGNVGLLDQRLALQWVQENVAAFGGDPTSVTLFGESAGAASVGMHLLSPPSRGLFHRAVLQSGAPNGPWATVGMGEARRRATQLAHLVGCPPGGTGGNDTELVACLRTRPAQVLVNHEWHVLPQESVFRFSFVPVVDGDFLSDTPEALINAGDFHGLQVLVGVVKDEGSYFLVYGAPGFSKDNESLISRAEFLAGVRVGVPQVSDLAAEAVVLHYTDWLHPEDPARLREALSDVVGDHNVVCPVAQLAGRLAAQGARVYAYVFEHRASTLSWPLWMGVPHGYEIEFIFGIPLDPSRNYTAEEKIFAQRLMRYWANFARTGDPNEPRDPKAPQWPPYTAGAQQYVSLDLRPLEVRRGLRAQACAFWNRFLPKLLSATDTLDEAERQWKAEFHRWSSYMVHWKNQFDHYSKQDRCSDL
T19 sequence (P48736 whole entry): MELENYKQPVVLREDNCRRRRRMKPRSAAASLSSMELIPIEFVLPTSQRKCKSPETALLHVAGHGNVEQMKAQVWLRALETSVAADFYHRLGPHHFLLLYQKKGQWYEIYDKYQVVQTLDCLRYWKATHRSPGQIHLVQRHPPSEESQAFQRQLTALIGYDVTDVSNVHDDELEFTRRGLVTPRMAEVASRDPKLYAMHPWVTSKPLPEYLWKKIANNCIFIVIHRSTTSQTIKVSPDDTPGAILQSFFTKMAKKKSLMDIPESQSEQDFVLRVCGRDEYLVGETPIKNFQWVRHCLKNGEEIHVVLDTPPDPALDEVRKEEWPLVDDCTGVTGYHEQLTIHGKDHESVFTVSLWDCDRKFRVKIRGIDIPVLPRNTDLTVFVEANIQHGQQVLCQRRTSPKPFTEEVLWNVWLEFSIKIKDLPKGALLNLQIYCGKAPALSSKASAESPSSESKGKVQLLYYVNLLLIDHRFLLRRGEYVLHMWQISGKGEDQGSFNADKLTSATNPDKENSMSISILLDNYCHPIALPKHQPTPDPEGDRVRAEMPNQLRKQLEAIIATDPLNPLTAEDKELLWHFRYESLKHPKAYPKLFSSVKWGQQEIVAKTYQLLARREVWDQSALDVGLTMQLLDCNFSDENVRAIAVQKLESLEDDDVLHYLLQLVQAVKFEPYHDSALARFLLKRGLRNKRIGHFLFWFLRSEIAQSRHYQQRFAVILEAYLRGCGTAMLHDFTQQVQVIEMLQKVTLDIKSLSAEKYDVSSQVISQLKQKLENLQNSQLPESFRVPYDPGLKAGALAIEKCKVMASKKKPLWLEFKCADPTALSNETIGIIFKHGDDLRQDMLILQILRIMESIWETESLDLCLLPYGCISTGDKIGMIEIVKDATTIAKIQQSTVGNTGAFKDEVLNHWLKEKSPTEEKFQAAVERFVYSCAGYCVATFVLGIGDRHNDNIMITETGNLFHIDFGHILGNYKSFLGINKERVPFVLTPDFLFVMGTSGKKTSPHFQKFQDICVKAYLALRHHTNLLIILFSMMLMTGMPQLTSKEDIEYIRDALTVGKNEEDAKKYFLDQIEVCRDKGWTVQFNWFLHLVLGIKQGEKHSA
T5 sequence (P14416 whole entry): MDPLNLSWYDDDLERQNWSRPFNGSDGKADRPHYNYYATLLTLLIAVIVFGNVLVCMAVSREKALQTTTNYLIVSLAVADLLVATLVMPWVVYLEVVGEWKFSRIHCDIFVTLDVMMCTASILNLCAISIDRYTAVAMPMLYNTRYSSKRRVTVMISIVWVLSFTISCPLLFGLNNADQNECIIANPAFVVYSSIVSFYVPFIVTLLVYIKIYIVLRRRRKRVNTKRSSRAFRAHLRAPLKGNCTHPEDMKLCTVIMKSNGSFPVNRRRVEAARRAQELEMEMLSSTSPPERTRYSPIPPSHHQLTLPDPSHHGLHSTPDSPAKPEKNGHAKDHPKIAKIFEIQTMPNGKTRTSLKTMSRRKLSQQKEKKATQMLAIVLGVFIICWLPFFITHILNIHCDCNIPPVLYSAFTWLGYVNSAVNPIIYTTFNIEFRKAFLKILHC
AhR, sequence (P35869 whole entry): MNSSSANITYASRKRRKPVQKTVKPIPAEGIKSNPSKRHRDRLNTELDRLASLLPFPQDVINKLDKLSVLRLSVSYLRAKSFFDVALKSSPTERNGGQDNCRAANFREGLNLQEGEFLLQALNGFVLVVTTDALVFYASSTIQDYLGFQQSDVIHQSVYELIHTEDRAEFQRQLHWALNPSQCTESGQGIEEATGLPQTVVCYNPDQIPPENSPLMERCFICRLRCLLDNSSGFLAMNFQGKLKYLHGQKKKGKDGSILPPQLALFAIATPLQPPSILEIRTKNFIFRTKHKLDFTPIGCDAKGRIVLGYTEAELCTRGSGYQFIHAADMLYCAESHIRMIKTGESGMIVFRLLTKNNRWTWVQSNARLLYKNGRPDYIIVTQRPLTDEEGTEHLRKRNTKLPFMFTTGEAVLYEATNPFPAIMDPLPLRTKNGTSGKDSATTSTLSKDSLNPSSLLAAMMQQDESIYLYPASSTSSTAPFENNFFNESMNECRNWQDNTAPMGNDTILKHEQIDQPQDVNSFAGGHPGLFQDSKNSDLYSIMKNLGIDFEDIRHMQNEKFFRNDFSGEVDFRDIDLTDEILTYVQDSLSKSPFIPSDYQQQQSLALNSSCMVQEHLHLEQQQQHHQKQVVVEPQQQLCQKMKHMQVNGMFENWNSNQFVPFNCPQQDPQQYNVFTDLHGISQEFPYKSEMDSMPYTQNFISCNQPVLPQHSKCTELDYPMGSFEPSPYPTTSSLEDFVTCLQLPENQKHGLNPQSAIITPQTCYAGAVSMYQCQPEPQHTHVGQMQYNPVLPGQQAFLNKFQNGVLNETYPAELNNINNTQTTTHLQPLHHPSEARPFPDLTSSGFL
T1 sequence (P29274 whole entry): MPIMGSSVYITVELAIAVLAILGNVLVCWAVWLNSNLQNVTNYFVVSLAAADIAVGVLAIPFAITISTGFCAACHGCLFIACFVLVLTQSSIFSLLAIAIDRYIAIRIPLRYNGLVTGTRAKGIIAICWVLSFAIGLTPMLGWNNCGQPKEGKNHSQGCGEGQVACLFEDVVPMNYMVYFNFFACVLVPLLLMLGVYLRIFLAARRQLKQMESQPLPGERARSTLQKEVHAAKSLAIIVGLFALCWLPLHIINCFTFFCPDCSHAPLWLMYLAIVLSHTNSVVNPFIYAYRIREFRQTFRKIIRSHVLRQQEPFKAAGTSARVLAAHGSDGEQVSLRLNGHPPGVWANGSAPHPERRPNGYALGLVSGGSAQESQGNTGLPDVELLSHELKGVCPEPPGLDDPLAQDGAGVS
NQO2, sequence (P16083 whole entry): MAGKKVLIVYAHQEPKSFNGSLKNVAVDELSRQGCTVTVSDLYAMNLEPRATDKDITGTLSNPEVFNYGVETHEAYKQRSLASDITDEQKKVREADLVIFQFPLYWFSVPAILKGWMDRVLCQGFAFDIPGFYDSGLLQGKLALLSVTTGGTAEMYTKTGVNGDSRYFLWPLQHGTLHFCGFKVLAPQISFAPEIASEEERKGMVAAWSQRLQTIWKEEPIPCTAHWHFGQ

SMILES: CCCCS(=O)(=O)Nc1ccc2cnn(C)c2c1 [GSK3011724A]
- Kd (NQO2): 4 to 6 µM
- Kd (Pks10): 1.4 µM
- Kd (Pks11): 1.4 µM
- EC50 (Adenosine A2a): > 100 µM
- EC50 (Adrenergic α2C): > 100 µM
- EC50 (Adrenergic β2): > 100 µM
- EC50 (AhR): > 100 µM
- EC50 (Cannabinoid CB2): > 100 µM
- EC50 (Dopamine D2): > 100 µM
- EC50 (Muscarine M1 [1]): > 50.1 µM
- EC50 (Muscarine M2): > 50.1 µM
- EC50 (Opioid κ): > 100 µM
- EC50 (Opioid μ): > 100 µM
- EC50 (PXR): > 50.1 µM
- EC50 (Serotonin 5HT1B): > 100 µM
- EC50 (Serotonin 5HT2A): > 25.1 µM
- EC50 (Serotonin 5HT2C): > 25.1 µM
- EC50 (Serotonin 5HT3): > 50.1 µM
- EC50 (α1 nicotinic AChR): > 50.1 µM
- IC50 (Muscarine M1 [2]): > 50.1 µM
- IC50 (NMDA Channel (NR2B)): > 50.1 µM
- IC50 (Acetylcholinesterase): > 100 µM
- IC50 (COX-2): > 100 µM
- IC50 (LCK): > 31.6 µM
- IC50 (PDE3A): > 100 µM
- IC50 (PI3Kγ): > 31.6 µM
